Test results reported in patent publication US6534539B2, “Pharmaceutical composition and method for treatment of dyspepsia” (Hoffman-La Roche Inc., priority 2000, dated 2003).

Columns and labels:
Assay type in all cases: in vivo, human
[1] = test system: normal volunteers, clinical model of dyspepsia (gastric distension); test: Changes in gastric tone (gastric baseline volume at MDP) during duodenal infusions; conditions: orlistat added to oil emulsion infused intraduodenally; p <0.05
Source text: (§1) The reduction of dyspeptic symptoms by lipase inhibitors, particularly orlistat, was shown in human clinical studies that measured functional dyspepsia. Specifically, we measured the reduction of dyspeptic symptoms after administration of orlistat to normal volunteers (healthy subjects without a history of gastrointestinal disease (8 female and 7 male), aged 24-38 years; normal body weight (BMI (kg/m^2): females: 21.9±0.4, males: 23.4±0.4) during infusion of a fat emulsion into the duodenum in a clinical model of idopathic dyspepsia (gastric distension). BMI means body mass index.
Fat emulsions (Table 1) were infused intraduodenally via a single-lumen, naso-duodenal polyvinyl tube as described previously (Feinle, AJP2000), while the stomach was distended. Gastrointestinal sensations were assessed by a visual analog questionnaire.
(§2) Studies were performed in a double-blind, placebo-controlled, cross-over fashion in randomised order at least one week apart. […] At first, the minimal distending pressure (MDP) was determined by increasing intragastric pressure in steps of 1 mmHg/min. Pressure was then fixed at MDP and fasting tone recorded until variations in gastric volume were no longer observed. […] Two isobaric distensions were performed, 15 min apart from each other, by increasing intrabag pressure in steps of 1 mmHg/min, while corresponding volumes were monitored. […]

[2] = test system: normal volunteers, clinical model of dyspepsia (gastric distension); test: Gastrointestinal sensations (visual analogue scales) during gastric distensions and duodenal infusion of fat emulsion
Source text: as §1
(§3) Fat emulsions (Table 1) were infused intraduodenally via a single-lumen, naso-duodenal polyvinyl tube as described previously (Feinle, AJP2000), while the stomach was distended. Gastrointestinal sensations were assessed by a visual analog questionnaire. […]
as §2

[3] = test system: normal volunteers, clinical model of dyspepsia (gastric distension); test: Pressure-volume relationships during gastric distensions and duodenal infusion of fat emulsion (gastric barostat); conditions: p <0.05
Source text: as §1, §3, §2

SMILES: CCCCCCCCCCC[C@@H](C[C@@H]1OC(=O)[C@H]1CCCCCC)OC(=O)[C@H](CC(C)C)NC=O [orlistat]
- Gastric baseline volume change during infusions [1]: completely abolished
- Effects of LCTs on scores for fullness, bloating, nausea, pressure and hunger ([2]; increasing intragastric pressure during duodenal fat infusion): significantly diminished
- Intensity of stomach fullness and sensitivity, nausea and bloating ([2]; orlistat added to fat emulsion infused into the duodenum, gastric distension by inflatable balloon): reduced
- Maximally tolerated pressure during gastric distension [3]: significantly increased
